These results are taken from patent publication US20230104936A1, “TRPML MODULATORS” (Casma Therapeutics, Inc., priority 2019, published 2023).

By AC50 is commonly meant the concentration giving half of the maximal activity seen. Read a low AC50 as greater potency.

Molecules are shown by their SMILES.

One test relates to TFEB. In words: TFEB nuclear translocation assay, HeLa wt cells. It is filed as cell-based. The conditions noted are these: 2 hrs compound treatment, Table 1 does not say HeLa wt or TRPML1 KO. As for the experimental part: For the TFEB nuclear translocation assay, HeLa wt or HeLa TRPML1 KO cells were plated at 2700 cells/well into black-walled, 384-well Cell carrier Ultra tissue culture treated plates in complete media and incubated overnight. The next day, cells are treated for 2 hrs with compounds and incubated at 37° C. Cells were then fixed for 30 minutes at room temperature in 4% final PFA and washed five times with 90 μL PBS. PBS is aspirated from the wells and the cells are blocked with 7.5 μL blocking buffer (1:1 PBS/Odyssey block buffer containing 0.1% triton x-100 and 1% goat serum). After 30-60 minutes of block, 7.5 μL of primary anti-TFEB (rabbit) antibody is added for a final dilution of 1:200 antibody in 15 μL blocking buffer. Plates are incubated overnight at 4° C. The following day, plates are washed again into PBS, 90 μL with 5 washes, all PBS is aspirated from the wells and the cells are incubated for 1 hr in 1:1000 goat-anti rabbit Alexa 488 secondary antibody, also containing 10 μg/mL Hoechst 33342. After the 1 hr room temperature incubation, plates are washed a final time into PBS, sealed with foil and imaged with an automated epifluorescence microscopy (PerkinElmer Operetta CLS). Four different fields were imaged per well using ×20 magnification for DAPI and FITC filter sets. Images were quantified using PerkinElmer Harmony software, briefly: apply flatfield correction (basic/advanced) for input images. Use the Find Nuclei building block with channel set at Hoechst to find the nuclei. Use the Find cytoplasm building block with channel set to Alexa 488 to find the cytoplasm. Use select cell region with Channel set at Alexa 488 and region of interest as Nuclei and define outer border at 0 μm and inner at 45 μm to cover complete nuclei. Use select cell region with Channel set at Alexa 488 and region of interest as ring region and define outer border at −5 μm and inner at 0 μm to define a ring around the nucleus. Use the find calculate intensity parameter to calculate intensity of the nuclear region and the ring region. Define results as Number of nuclei and ratio of A/B where A is Intensity of Nuclei and B is intensity of the ring region.
The compound numbers correspond to the compound numbers above in Tables A or B. Compounds having an activity designated as “++++” provided an AC50 of ≤2.00 μM; compounds having an activity designated as “+++” provided an AC50 of 2.01-8.00 μM; compounds having an activity designated as “++” provided an AC50 of 8.01-9.99 μM; and compounds having an activity designated as “+” provided an AC50 of ≥10.00 μM.
`CC(c1cccc(F)c1N1CCCCC1)S(=O)(=O)c1ccc(S(=N)(=O)C(F)F)cc1` (single isomer, unassigned) [Compound A-937, (difluoromethyl)(4-((1-(3-fluoro-2-(piperidin-1-yl)phenyl)ethyl)sulfonyl)phenyl)(imino)-l6-sulfanone] gave an AC50 of 2.01 to 8 µM.

In turn, `CC(c1cccc(F)c1N1CCCCC1)S(=O)(=O)c1ccc(S(=N)(=O)C(F)F)cc1` (single isomer, unassigned) [Compound A-938, (difluoromethyl)(4-((1-(3-fluoro-2-(piperidin-1-yl)phenyl)ethyl)sulfonyl)phenyl)(imino)-l6-sulfanone] gave an AC50 not below 10 µM.

With `CC(c1cccc(F)c1N1CCCCC1)S(=O)(=O)c1ccc(S(=N)(=O)C(F)F)cc1` (single isomer, unassigned) [Compound A-939, (difluoromethyl)(4-((1-(3-fluoro-2-(piperidin-1-yl)phenyl)ethyl)sulfonyl)phenyl)(imino)-l6-sulfanone], the AC50 lay in the range of 2.01 to 8 µM.

`CC(c1cccc(F)c1N1CCCCC1)S(=O)(=O)c1ccc(S(=N)(=O)C(F)F)cc1` (single isomer, unassigned) [Compound A-940, (difluoromethyl)(4-((1-(3-fluoro-2-(piperidin-1-yl)phenyl)ethyl)sulfonyl)phenyl)(imino)-l6-sulfanone] displayed an AC50 not above 2 µM.

Consider `CC(c1cccc(F)c1N1CCC(COC(C)(C)C)CC1)S(=O)(=O)c1ccc(S(=N)(=O)N(C)C)cc1` (single isomer, unassigned) [Compound A-946, 4-((1-(2-(4-(tert-butoxymethyl)piperidin-1-yl)-3-fluorophenyl)ethyl)sulfonyl)-N,N-dimethylbenzenesulfonimidamide], for which the AC50 was not above 2 µM.

With `CC(c1cccc(F)c1N1CCCCC1)S(=O)(=O)c1ccc2c(c1)CCS2(=N)=O` (single isomer, unassigned) [Compound A-960], the AC50 is not below 10 µM.

Compound `CC(c1cccc(F)c1N1CCC(COC(C)(C)C)CC1)S(=O)(=O)c1ccc(S(=N)(=O)N(C)C)cc1` (single isomer, unassigned) [Compound A-961, 4-((1-(2-(4-(tert-butoxymethyl)piperidin-1-yl)-3-fluorophenyl)ethyl)sulfonyl)-N,N-dimethylbenzenesulfonimidamide] yielded an AC50 not below 10 µM.

Regarding `CC(c1cccc(F)c1N1CCC(COC(C)(C)C)CC1)S(=O)(=O)c1ccc(S(=N)(=O)N(C)C)cc1` (single isomer, unassigned) [Compound A-962, 4-((1-(2-(4-(tert-butoxymethyl)piperidin-1-yl)-3-fluorophenyl)ethyl)sulfonyl)-N,N-dimethylbenzenesulfonimidamide], the AC50 is not above 2 µM.

On to `CC(c1cccc(F)c1N1CCC(C)(C(F)F)CC1)S(=O)(=O)c1ccc(C(F)F)cc1` (single isomer, unassigned) [Compound A-964, 4-(difluoromethyl)-1-(2-(1-((4-(difluoromethyl)phenyl)sulfonyl)ethyl)-6-fluorophenyl)-4-methylpiperidine], for which the AC50 was not above 2 µM.

As to `Cc1ccc(S(=O)(=O)C(C)c2cccc(F)c2N2CCC(CN3C4CCC3COC4)CC2)cc1` (single isomer, unassigned) [Compound A-965, 8-((1-(2-fluoro-6-(1-tosylethyl)phenyl)piperidin-4-yl)methyl)-3-oxa-8-azabicyclo[3.2.1]octane], the AC50 was not below 10 µM.

Take `CC(c1cccc(F)c1N1CCOCC1)S(=O)(=O)c1ccc2c(c1)CCS2(=O)=O` (single isomer, unassigned) [Compound A-967, 5-((1-(3-fluoro-2-morpholinophenyl)ethyl)sulfonyl)-2,3-dihydrobenzo[b]thiophene 1,1-dioxide]: the AC50 is not below 10 µM.

In turn, `CC(c1cccc(F)c1N1CCC(C)(C(F)F)CC1)S(=O)(=O)c1ccc(S(=N)(=O)N(C)C)cc1` (single isomer, unassigned) [Compound A-974, 4-((1-(2-(4-(difluoromethyl)-4-methylpiperidin-1-yl)-3-fluorophenyl)ethyl)sulfonyl)-N,N-dimethylbenzenesulfonimidamide] came in with an AC50 not above 2 µM.

For `CC(c1cccc(F)c1N1CCC(C)(C(F)F)CC1)S(=O)(=O)c1ccc(S(=N)(=O)N(C)C)cc1` (single isomer, unassigned) [Compound A-975, 4-((1-(2-(4-(difluoromethyl)-4-methylpiperidin-1-yl)-3-fluorophenyl)ethyl)sulfonyl)-N,N-dimethylbenzenesulfonimidamide], the AC50 was not below 10 µM.

As for `CC(c1cccc(F)c1N1CCC(COC(C)(C)C)CC1)S(=O)(=O)c1ccc(C(F)F)cc1` (single isomer, unassigned) [Compound A-977, 4-(tert-butoxymethyl)-1-(2-(1-((4-(difluoromethyl)phenyl)sulfonyl)ethyl)-6-fluorophenyl)piperidine], the AC50 fell in the range of 2.01 to 8 µM.

Turning to `CC(c1cc(Cl)cnc1N1CCC(CN2CCC(F)(F)CC2)CC1)S(=O)(=O)c1ccc(S(=O)(=O)N(C)C)cc1` (single isomer, unassigned) [Compound A-979, 4-((1-(5-chloro-2-(4-((4,4-difluoropiperidin-1-yl)methyl)piperidin-1-yl)pyridin-3-yl)ethyl)sulfonyl)-N,N-dimethylbenzenesulfonamide], the AC50 fell in the range of 2.01 to 8 µM.

Take `CC(c1cccc(F)c1N1CCCCC1)S(=O)(=O)c1ccc(S2(=O)=NCCC2)cc1` (single isomer, unassigned) [Compound A-980, 1-(4-((1-(3-fluoro-2-(piperidin-1-yl)phenyl)ethyl)sulfonyl)phenyl)-4,5-dihydro-3H-isothiazole 1-oxide]: the concentration at half-maximal activity (AC50) was not below 10 µM.

As to `CC(c1cccc(F)c1N1CCCCC1)S(=O)(=O)c1ccc(S2(=O)=NCCC2)cc1` (single isomer, unassigned) [Compound A-981, 1-(4-((1-(3-fluoro-2-(piperidin-1-yl)phenyl)ethyl)sulfonyl)phenyl)-4,5-dihydro-3H-isothiazole 1-oxide], the AC50 was not below 10 µM.

As to `CN(C)S(=O)(=O)c1ccc(S(=O)(=O)C(c2cccc(F)c2N2CCCCC2)C2CC2)cc1` (single isomer, unassigned) [Compound A-983, 4-((cyclopropyl(3-fluoro-2-(piperidin-1-yl)phenyl)methyl)sulfonyl)-N,N-dimethylbenzenesulfonamide], the AC50 was not above 2 µM.

Still in this test, the particulars now being: Homo sapiens, HeLa, 2 h, 2 hrs compound treatment, Table 1 does not say HeLa wt or TRPML1 KO.
In the case of `CC(c1cccc(F)c1N1CCCCC1)S(=O)(=O)c1ccc2c(c1)CCS2(=N)=O` (single isomer, unassigned) [Compound A-959], the AC50 is not below 10 µM.

`CC(c1cccc(F)c1N1CCC(C)(C(F)F)CC1)S(=O)(=O)c1ccc(C(F)F)cc1` (single isomer, unassigned) [Compound A-963, 4-(difluoromethyl)-1-(2-(1-((4-(difluoromethyl)phenyl)sulfonyl)ethyl)-6-fluorophenyl)-4-methylpiperidine]: the AC50 was in the range of 2.01 to 8 µM.

`CC(c1cccc(F)c1N1CCOCC1)S(=O)(=O)c1ccc2c(c1)CCS2(=O)=O` (single isomer, unassigned) [Compound A-966, 5-((1-(3-fluoro-2-morpholinophenyl)ethyl)sulfonyl)-2,3-dihydrobenzo[b]thiophene 1,1-dioxide] came in with an AC50 not below 10 µM.

`CC(c1cccc(F)c1N1CCC(COC(C)(C)C)CC1)S(=O)(=O)c1ccc(C(F)F)cc1` (single isomer, unassigned) [Compound A-976, 4-(tert-butoxymethyl)-1-(2-(1-((4-(difluoromethyl)phenyl)sulfonyl)ethyl)-6-fluorophenyl)piperidine]: the AC50 is not above 2 µM.

On to `CC(c1cc(Cl)cnc1N1CCC(CN2CCC(F)(F)CC2)CC1)S(=O)(=O)c1ccc(S(=O)(=O)N(C)C)cc1` (single isomer, unassigned) [Compound A-978, 4-((1-(5-chloro-2-(4-((4,4-difluoropiperidin-1-yl)methyl)piperidin-1-yl)pyridin-3-yl)ethyl)sulfonyl)-N,N-dimethylbenzenesulfonamide], for which the AC50 is not above 2 µM.

`CN(C)S(=O)(=O)c1ccc(S(=O)(=O)C(c2cccc(F)c2N2CCCCC2)C2CC2)cc1` (single isomer, unassigned) [Compound A-982, 4-((cyclopropyl(3-fluoro-2-(piperidin-1-yl)phenyl)methyl)sulfonyl)-N,N-dimethylbenzenesulfonamide] returned an AC50 not above 2 µM.
